Experimental data as given in patent US20220133894A1, “BISPHOSPHONATE-LINKED COMPOUNDS” (OREGON HEALTH & SCIENCE UNIVERSITY, priority 2019, published 2022).

Tests used:
RAW 267.4 cells [1] = experiment: Osteoclast morphology and maturation (actin/DAPI immunofluorescence, TRAP staining); type: cell-based, mouse
Text: Treatment of RAW 267.4 cells with KBU2046 induces several structural and functional changes. It reduces RANKL-mediated formation of multinucleated cells, and those that do form have lower numbers of nuclei (see 40× panels, FIG. 4B). The characteristic prominent actin ring (white arrow) surrounding the resorptive cavity (yellow arrow) is readily apparent in control cells treated with RANKL ligand, but is lacking in KBU2046-treated cells (100×, panels). Consistent with it inhibiting maturation of RAW 267.4 cells, TRAP staining is decreased in KBU2046-treated cells (FIG. 4C).
(§1) FIG. 4 represents the KBU2046 inhibition of osteoclast function. FIG. 4A compares effects on Raf1 activation. RAW 267.4 cells were treated with RANKL for 4 days, treated with 10 μM KBU2046 for the indicated time periods, and Western blot for the denoted proteins performed. (B) Effects on cell morphology. RAW 267.4 cells were treated with RANKL and with KBU2046 for 4 days, or not, and denoted, and stained for actin (green) and DAPI (blue); white arrow denotes an actin ring, yellow arrow a resorptive cavity. Representative immunofluorescent images are depicted. (C) Tartrate resistant acid phosphatase (TRAP) expression. Cells were treated as in B, stained for TRAP (denoted by presence of red), and representative images from light microscopy depicted. (D) Bone degradation. RAW 267.4 cells were plated onto Osteo Assay plates, treated with RANKL for 6 days and with KBU2046 (or vehicle for controls) as indicated and bone surface area quantified. Data are the mean±SEM (N=3 replicates) of bone surface area, expressed as the percentage of control cells; * denotes P<0.05 compared to control.
Raw 264.7 cells were grown in differentiation medium (described below), with or without KBU2046, for 4 days on a Chamber Slide (Nunc Lab-Tek). Chambers were washed once with PBS, followed by 10-minute fixation in cold 10% neutral-buffered formalin (VWR) and a post-fixation wash with PBS. […] The cells were then incubated for 2 hours at 4° C. in Dylight Phallodin (Cell Signaling technology, #12935) antibody diluted 1:40 in 1×PBS with 1% BSA and 0.3% Triton X-100. Subsequently, the slide was washed once with PBS, a coverslip mounted with ProLong Gold Antifade Reagent with DAPI (Cell Signaling Technology, #8961), and imaged on a Confocal Microscope (Nikon/Yokogawa Spinning Disc).

RAW 267.4 cells [2] = experiment: Osteo Assay pit formation, osteoclast-mediated bone degradation; type: cell-based, mouse
Procedure: as §1, with “Cells were treated as in B, stained for TRAP (denoted by presence of red), and representative images from light microscopy depicted. (D) Bone degradation.” left out
To determine whether KBU2046 inhibits osteoclast-mediated bone degradation, we used Corning Osteo Assay Surface plates, which are coated with calcium-phosphate-based bone mineral. This platform supports osteoclast growth, allowing for the quantitative measurement of bone degradation, and has previously been used to measure bisphosphonate-mediated inhibition of bone degradation (40). […]

O=C1c2ccccc2OCC1c1ccc(F)cc1 (stereo not drawn) [KBU2046, 3-(4-fluorophenyl)chroman-4-one]
RANKL-mediated formation of multinucleated cells (RAW 267.4 cells [1]; RANKL and KBU2046 for 4 days): reduces | TRAP staining (RAW 267.4 cells [1]; RANKL and KBU2046 for 4 days): decreased | actin ring surrounding the resorptive cavity (RAW 267.4 cells [1]; RANKL and KBU2046 for 4 days): lacking | cellular extensions of undifferentiated cells (RAW 267.4 cells [1]; absence of RANKL): markedly reduces | increase of bone surface area compared with control (mean±SEM) (RAW 267.4 cells [2]; 10 μmol/L KBU2046, RANKL, 6 days): 28%±1.4% | bone surface area (RAW 267.4 cells [2]; plates pre-treated with ZA at 2, 10 and 20 μM, KBU2046 10 μM): significantly increased
